Laboratory results published in patent US7205382B2, “Peptides, the production and use thereof for binding immunoglobulins” (Fresenius Medical Care Affina GmbH, priority 2000, dated 2007).
Bridge positions count the residues as written; N and C are the ends. Square brackets hold non-standard residues; d marks the D form. Ends that are not written are not given here. cellulose = not defined here; βAla = NCCC(=O)O

How the values were obtained:
Format in all cases: binding
Design in all cases: key: No binding of immunoglobulin for the defined peptide variant, detection negative: 0; Binding of immunoglobulin for the defined peptide variant, detection positive: +
serum albumin = experiment: Cellulose-immobilized 13-mer peptide variants incubated with serum albumin (negative control), anti-human IgG-AP detection; details: blocking buffer without addition, 3 h room temperature
In short: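 Peptides on cellulose via a (βA)(βA) spacer were blocked in T-TBS (pH 8.0) with 5% saccharose and 4% BSA, then exposed for 3 h at room temperature to IgG-Fc (1 μg/ml), serum diluted 1:10,000, or blocking buffer alone. Bound IgG was detected with AP-anti-human IgG (1.2 μg/ml) and NBT/BCIP colour development.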

[1] = system: immunoglobulins in human plasma; experiment: Cellulose-immobilized 13-mer peptide variants incubated with human plasma, anti-human IgG-AP detection; details: human plasma as sample, diluted 1:10,000 in blocking buffer, 3 h room temperature
In short: (§1)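 Spot membrane, (βA)(βA) spacer; T-TBS pH 8.0 wash, block 5% saccharose/4% BSA. 3 h RT with IgG-Fc 1 μg/ml, serum 1:10,000, or block buffer only (specificity control). 3× wash, AP-anti-human IgG 1.2 μg/ml, NBT/BCIP in pH 9.5 buffer.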

human IgG-Fc = experiment: Cellulose-immobilized 13-mer peptide variants incubated with human IgG-Fc, anti-human IgG-AP detection; details: IgG-Fc 1 μg/ml in blocking buffer, 3 h room temperature
In short: as §1

Result for incubation with serum albumin (immunoglobulin binding detection) (serum albumin)	Result for incubation with human plasma (immunoglobulin binding detection) [1]	Result for incubation with human IgG-Fc (immunoglobulin binding detection) (human IgG-Fc)	Substance
0	0	0	03Y: cellulose-bound 13-mer variant DCYWHLGELVWCT-(βA)(βA) (DCYWHLGELVWCT-{βAla-βAla-cellulose}; disulfide 2-12 (inferred); reading uncertain; also: printed as DCYWHLGELVWCT-(βA)(βA))
0	0	0	04A: cellulose-bound 13-mer variant DCAAHLGELVWCT-(βA)(βA) (DCAAHLGELVWCT-{βAla-βAla-cellulose}; disulfide 2-12 (inferred); reading uncertain; also: printed as DCAAHLGELVWCT-(βA)(βA))
0	0	0	04C: cellulose-bound 13-mer variant DCACHLGELVWCT-(βA)(βA) (DCACHLGELVWCT-{βAla-βAla-cellulose}; disulfide (positions not given here); not fully specified (bridges); printed as DCACHLGELVWCT-(βA)(βA); reading uncertain)
0	0	0	04D: cellulose-bound 13-mer variant DCADHLGELVWCT-(βA)(βA) (DCADHLGELVWCT-{βAla-βAla-cellulose}; disulfide 2-12 (inferred); reading uncertain; also: printed as DCADHLGELVWCT-(βA)(βA))
0	+	+	04E: cellulose-bound 13-mer variant DCAEHLGELVWCT-(βA)(βA) (DCAEHLGELVWCT[βAla][βAla]; disulfide 2-12 (inferred); also: cellulose-bound)
0	0	0	04G: cellulose-bound 13-mer variant DCAGHLGELVWCT-(βA)(βA) (DCAGHLGELVWCT[βAla][βAla]; disulfide 2-12 (inferred); also: cellulose-bound)
0	+	+	04H: cellulose-bound 13-mer variant DCAHHLGELVWCT-(βA)(βA) (DCAHHLGELVWCT[βAla][βAla]; disulfide 2-12 (inferred); also: cellulose-bound)
0	0	+	04I: cellulose-bound 13-mer variant DCAIHLGELVWCT-(βA)(βA) (DCAIHLGELVWCT[βAla][βAla]; disulfide 2-12 (inferred); also: cellulose-bound)
0	+	+	04K: cellulose-bound 13-mer variant DCAKHLGELVWCT-(βA)(βA) (DCAKHLGELVWCT[βAla][βAla]; disulfide 2-12 (inferred); also: cellulose-bound)
0	0	+	04L: cellulose-bound 13-mer variant DCALHLGELVWCT-(βA)(βA) (DCALHLGELVWCT[βAla][βAla]; disulfide 2-12 (inferred); also: cellulose-bound)
0	+	+	04M: cellulose-bound 13-mer variant DCAMHLGELVWCT-(βA)(βA) (DCAMHLGELVWCT[βAla][βAla]; disulfide 2-12 (inferred); also: cellulose-bound)
0	0	+	04N: cellulose-bound 13-mer variant DCANHLGELVWCT-(βA)(βA) (DCANHLGELVWCT[βAla][βAla]; disulfide 2-12 (inferred); also: cellulose-bound)
0	0	0	04P: cellulose-bound 13-mer variant DCAPHLGELVWCT-(βA)(βA) (disulfide 2-12 (inferred); not fully specified (N-terminus, C-terminus); printed as DCAPHLGELVWCT-(βA)(βA); also: cellulose-bound)
0	0	+	04Q: cellulose-bound 13-mer variant DCAQHLGELVWCT-(βA)(βA) (disulfide 2-12 (inferred); not fully specified (N-terminus, C-terminus); printed as DCAQHLGELVWCT-(βA)(βA); also: cellulose-bound)
0	+	+	04R: cellulose-bound 13-mer variant DCARHLGELVWCT-(βA)(βA) (disulfide 2-12 (inferred); not fully specified (N-terminus, C-terminus); printed as DCARHLGELVWCT-(βA)(βA); also: cellulose-bound)
0	+	+	04S: cellulose-bound 13-mer variant DCASHLGELVWCT-(βA)(βA) (disulfide 2-12 (inferred); not fully specified (N-terminus, C-terminus); printed as DCASHLGELVWCT-(βA)(βA); also: cellulose-bound)
0	+	+	04T: cellulose-bound 13-mer variant DCATHLGELVWCT-(βA)(βA) (disulfide 2-12 (inferred); not fully specified (N-terminus, C-terminus); printed as DCATHLGELVWCT-(βA)(βA); also: cellulose-bound)
